Measurements reported in patent US6864219B2, “Substituted aryl ketones” (Bayer Aktiengesellschaft, priority 2000, dated 2005).

Key:
[1] = tested on: weeds; test: Pre-emergence test (Example A), activity against weeds; assay type: in vivo; details: soil sprayed 24 hours after sowing; damage rated after three weeks
Experimental: (§1) To produce a suitable preparation of active compound, 1 part by weight of active compound is mixed with the stated amount of solvent, the stated amount of emulsifier is added and the concentrate is diluted with water to the desired concentration.
Seeds of the test plants are sown in normal soil. After 24 hours, the soil is sprayed with the preparation of active compound such that the particular amount of active compound desired is applied per unit area. The concentration of active compound in the spray liquor is chosen such that the particular amount of active compound desired is applied in 1000 liters of water per hectare.
After three weeks, the degree of damage to the plants is rated in % damage in comparison to the development of the untreated control. The figures denote: • 0%=no effect (like untreated control) • 100%=total destruction

[2] = log P determination by HPLC on reversed-phase column (C 18), EEC Directive 79/831 V.A8; assay type: physicochemical; details: for logP (Physical data, Table 1): labelled a): acidic range, 0.1% aqueous phosphoric acid/acetonitrile gradient, 43° C.; for chromatographic logP: reversed-phase HPLC column (C 18), mobile-phase label not given, read-out: Log P (preparation examples)
Experimental: The log P values given in Table 1 were determined in accordance with EEC Directive 79/831 V.A8 by HPLC (High Performance Liquid Chromatography) on a reversed-phase column (C 18). Temperature: 43° C.
(a) Mobile phases for the determination in the acidic range: 0.1% aqueous phosphoric acid, acetonitrile; linear gradient of 10% acetonitrile to 90% acetonitrile—the corresponding data in Table 1 are labelled ^a).
(b) Mobile phases for the determination in the neutral range: 0.01 molar aqueous phosphate buffer solution, acetonitrile, linear gradient from 10% acetonitrile to 90% acetonitrile—the corresponding data in Table 1 are labelled ^b).

[3] = tested on: weeds; test: Post-emergence test (Example B), activity against weeds; assay type: in vivo; details: test plants 5-15 cm sprayed; damage rated after three weeks
Experimental: as §1
Test plants with a height of 5-15 cm are sprayed with the preparation of active compound such that the particular amounts of active compound desired are applied per unit area. The concentration of the spray liquor is chosen so that the particular amounts of active compound desired are applied in 1000 l of water/ha.
After three weeks, the degree of damage to the plants is rated in % damage in comparison to the development of the untreated control.
The figures denote: • 0%=no effect (like untreated control) • 100%=total destruction

Row | Compound | activity against weeds, pre-emergence [1] | logP (Physical data, Table 1) [2] | activity against weeds, post-emergence [3] | chromatographic logP [2]
1 | CSc1ccc(C(=O)C2=C(O)CCCC2=O)c(Cl)c1OCCn1nc(C)n(C)c1=O [Example 8] | strong activity | logP = 1.94^a) | strong activity | 
2 | CSc1ccc(C(=O)C2=C(O)CCCC2=O)c(C)c1OCCn1nc(C)n(C)c1=O [Example 10] | strong activity | logP = 1.91^a) | strong activity | 
3 | Cc1c(C(=O)C2=C(O)CCCC2=O)ccc(Cl)c1OCCn1nc(C)n(C)c1=O [Example 6] | strong activity | logP = 1.93^a) | strong activity | 
4 | CCOc1nn(COc2c(Cl)ccc(C(=O)C3C(=O)CCCC3=O)c2Cl)c(=O)n1C [Example 2, 2-[3-(3′-ethoxy-4′-methyl-1′,2′,4′-1H-triazolin-5′-on-1′-yl)-methoxy-2,4-dichloro-benzoyl]-1,3-cyclohexanedione] | strong activity |  | strong activity | 2.52
5 | CCn1ncc(C(=O)c2ccc(S(C)(=O)=O)c(OCCn3nc(C)n(C)c3=O)c2C)c1O [Example 1, 4-{3-[2-(3′,4′-dimethyl-1′,2′,4′-1H-triazolin-5′-on-1′-yl)-ethyloxy]-2-methyl-4-methylsulphonyl-benzoyl}-1-ethyl-5-hydroxy-1H-pyrazole] | strong activity |  | strong activity | 1.23
6 | O=C1CCCC(O)=C1C(=O)c1ccc(Cl)c(OCn2ccccc2=O)c1Cl [Example 3] | strong activity | logP = 2.04^a) | strong activity | 
7 | Cc1nn(CCOc2c(S(C)(=O)=O)ccc(C(=O)C3=C(O)CCCC3=O)c2Cl)c(=O)n1C [Example 11] | strong activity | logP = 1.65^a) | strong activity | 
8 | Cc1nn(CCOc2c(Cl)ccc(C(=O)C3=C(O)CCCC3=O)c2Cl)c(=O)n1C [Example 4] | strong activity | logP = 1.92^a) | strong activity | 
9 | CCn1ncc(C(=O)c2ccc(SC)c(OCCn3nc(C)n(C)c3=O)c2Cl)c1O [Example 9] | strong activity | logP = 1.58^a) | strong activity | 
